Assay results: PMC5218480 (PLoS ONE, 2017)

Tested on: MV-4-11 cells
Assay: Gene expression microarray analysis (Affymetrix PrimeView) and GSEA
Assay type: cell-based, human
Parameters: RFU PODN (11730768_x_at) / Fold change /veh PODN (11730768_x_at) / RFU LINC00158 (11744669_a_at) / Fold change /veh LINC00158 (11744669_a_at) / RFU DUSP10 (11751237_a_at) / Fold change /veh DUSP10 (11751237_a_at) / RFU ID3 (11757404_x_at) / Fold change /veh ID3 (11757404_x_at) / RFU PLEKHG5 (11737974_s_at) / Fold change /veh PLEKHG5 (11737974_s_at) / RFU LRRC4B (11730491_at) / Fold change /veh LRRC4B (11730491_at) / RFU GIMAP4 (11747438_a_at) / Fold change /veh GIMAP4 (11747438_a_at) / RFU KRT8 (11758183_x_at) / Fold change /veh KRT8 (11758183_x_at) / RFU CNN1 (11734310_a_at) / Fold change /veh CNN1 (11734310_a_at) / RFU VPS37D (11726825_at) / Fold change /veh VPS37D (11726825_at) / RFU C10orf10 (11716522_x_at) / Fold change /veh C10orf10 (11716522_x_at) / RFU KIR2DL2 /// KIR2DL4 /// KIR2DL5A /// KIR2DL5B /// KIR2DS1 /// KIR2DS2 /// KIR2DS3 /// KIR2DS4 /// KIR3DL3 /// KIR3DL3 /// KIR3DS1 (11738374_at) / Fold change /veh KIR2DL2 /// KIR2DL4 /// KIR2DL5A /// KIR2DL5B /// KIR2DS1 /// KIR2DS2 /// KIR2DS3 /// KIR2DS4 /// KIR3DL3 /// KIR3DL3 /// KIR3DS1 (11738374_at) / RFU C1QL1 (11718748_at) / Fold change /veh C1QL1 (11718748_at) / RFU TMPRSS4 (11747572_a_at) / Fold change /veh TMPRSS4 (11747572_a_at) / RFU HAMP (11756126_x_at) / Fold change /veh HAMP (11756126_x_at) / RFU RNFT2 (11725882_a_at) / Fold change /veh RNFT2 (11725882_a_at) / RFU NR4A2 (11747474_a_at) / Fold change /veh NR4A2 (11747474_a_at) / RFU ABCC12 (11746883_a_at) / Fold change /veh ABCC12 (11746883_a_at) / RFU TMEM136 (11760407_x_at) / Fold change /veh TMEM136 (11760407_x_at) / RFU CLDN22 /// WWC2 (11732394_at) / Fold change /veh CLDN22 /// WWC2 (11732394_at) / RFU HLA-DPB1 (11760878_x_at) / Fold change /veh HLA-DPB1 (11760878_x_at) / RFU SPINT1 (11716480_a_at) / Fold change /veh SPINT1 (11716480_a_at) / RFU GAP43 (11754022_s_at) / Fold change /veh GAP43 (11754022_s_at) / RFU A4GNT (11735810_at) / Fold change /veh A4GNT (11735810_at) / RFU PRB3 (11715151_x_at) / Fold change /veh PRB3 (11715151_x_at) / RFU TUBB4B (11761932_at) / Fold change /veh TUBB4B (11761932_at) / RFU CAPN14 (11732068_a_at) / Fold change /veh CAPN14 (11732068_a_at) / RFU TMCC2 (11721928_a_at) / Fold change /veh TMCC2 (11721928_a_at) / RFU IRGQ (11745062_a_at) / Fold change /veh IRGQ (11745062_a_at) / RFU FAM174B (11720279_a_at) / Fold change /veh FAM174B (11720279_a_at) / RFU TMPRSS4 (11748680_a_at) / Fold change /veh TMPRSS4 (11748680_a_at) / RFU FAM212B (11763350_a_at) / Fold change /veh FAM212B (11763350_a_at) / RFU PLEKHG5 (11743358_a_at) / Fold change /veh PLEKHG5 (11743358_a_at) / RFU ZSCAN30 (11745921_a_at) / Fold change /veh ZSCAN30 (11745921_a_at) / RFU CMKLR1 (11741424_a_at) / Fold change /veh CMKLR1 (11741424_a_at) / RFU LOC101060620 /// MAPK8IP1 (11723275_at) / Fold change /veh LOC101060620 /// MAPK8IP1 (11723275_at) / RFU SPTSSB (11747773_x_at) / Fold change /veh SPTSSB (11747773_x_at) / RFU PRSS12 (11739890_at) / Fold change /veh PRSS12 (11739890_at) / RFU BIN1 (11741810_x_at) / Fold change /veh BIN1 (11741810_x_at) / RFU WNT11 (11732464_a_at) / Fold change /veh WNT11 (11732464_a_at) / RFU C10orf10 (11716521_a_at) / Fold change /veh C10orf10 (11716521_a_at) / RFU C5orf56 (11738089_at) / Fold change /veh C5orf56 (11738089_at) / RFU CYB561 (11721691_x_at) / Fold change /veh CYB561 (11721691_x_at) / RFU ANKRD19P (11752326_a_at) / Fold change /veh ANKRD19P (11752326_a_at) / RFU OR2T12 /// OR2T33 /// OR2T8 (11738714_s_at) / Fold change /veh OR2T12 /// OR2T33 /// OR2T8 (11738714_s_at) / RFU VCAN (11748164_a_at) / Fold change /veh VCAN (11748164_a_at) / RFU JSRP1 (11732532_at) / Fold change /veh JSRP1 (11732532_at) / RFU KRTAP10-11 (11738290_x_at) / Fold change /veh KRTAP10-11 (11738290_x_at) / RFU MYO3A (11730013_a_at) / Fold change /veh MYO3A (11730013_a_at) / RFU EBF3 (11725865_a_at) / Fold change /veh EBF3 (11725865_a_at) / RFU CAMK2N1 (11719241_x_at) / Fold change /veh CAMK2N1 (11719241_x_at) / RFU C5orf56 (11738088_a_at) / Fold change /veh C5orf56 (11738088_a_at) / RFU OLFML3 (11715873_a_at) / Fold change /veh OLFML3 (11715873_a_at) / RFU LOC100653217 /// NTM (11731650_a_at) / Fold change /veh LOC100653217 /// NTM (11731650_a_at) / RFU MAPK11 (11762145_a_at) / Fold change /veh MAPK11 (11762145_a_at) / RFU FIZ1 (11724087_x_at) / Fold change /veh FIZ1 (11724087_x_at) / RFU OASL (11726364_x_at) / Fold change /veh OASL (11726364_x_at) / RFU SOX15 (11748057_x_at) / Fold change /veh SOX15 (11748057_x_at) / RFU CD79A (11719716_a_at) / Fold change /veh CD79A (11719716_a_at) / RFU HIST1H1D (11736915_at) / Fold change /veh HIST1H1D (11736915_at) / RFU CASKIN2 (11723855_a_at) / Fold change /veh CASKIN2 (11723855_a_at) / RFU LOC730098 (11760151_x_at) / Fold change /veh LOC730098 (11760151_x_at) / RFU OR4N2 (11742367_at) / Fold change /veh OR4N2 (11742367_at) / RFU PRRT2 (11749266_a_at) / Fold change /veh PRRT2 (11749266_a_at) / RFU SNX32 (11753110_a_at) / Fold change /veh SNX32 (11753110_a_at) / RFU CDHR5 (11726645_a_at) / Fold change /veh CDHR5 (11726645_a_at) / RFU RCAN1 (11760418_a_at) / Fold change /veh RCAN1 (11760418_a_at) / RFU FAM167A (11723789_a_at) / Fold change /veh FAM167A (11723789_a_at) / RFU FAM26E (11764081_at) / Fold change /veh FAM26E (11764081_at) / RFU ISYNA1 (11749810_s_at) / Fold change /veh ISYNA1 (11749810_s_at) / RFU ACY1 (11761880_at) / Fold change /veh ACY1 (11761880_at) / RFU 11764098_at / Fold change /veh 11764098_at / RFU SAMD14 (11745864_x_at) / Fold change /veh SAMD14 (11745864_x_at) / RFU NPB (11741838_a_at) / Fold change /veh NPB (11741838_a_at) / RFU TMPRSS6 (11731388_a_at) / Fold change /veh TMPRSS6 (11731388_a_at) / RFU KRTAP10-2 (11738614_at) / Fold change /veh KRTAP10-2 (11738614_at) / RFU ARHGAP8 /// PRR5-ARHGAP8 (11727945_x_at) / Fold change /veh ARHGAP8 /// PRR5-ARHGAP8 (11727945_x_at) / RFU KRTAP5-7 /// NADSYN1 (11734609_at) / Fold change /veh KRTAP5-7 /// NADSYN1 (11734609_at) / RFU RASL12 (11751679_a_at) / Fold change /veh RASL12 (11751679_a_at) / RFU CDKN2B (11736163_a_at) / Fold change /veh CDKN2B (11736163_a_at) / RFU PRF1 (11729649_at) / Fold change /veh PRF1 (11729649_at) / RFU, ZNF638 /// ZNF638-IT1 / Fold change vs veh, ZNF638 /// ZNF638-IT1 / RFU, PANK3 / Fold change vs veh, PANK3 / RFU, SH3YL1 / Fold change vs veh, SH3YL1 / RFU, ZEB2 / Fold change vs veh, ZEB2 / RFU, NRIP1 / Fold change vs veh, NRIP1 / RFU, PTTG1IP / Fold change vs veh, PTTG1IP / RFU, CAPN2 / Fold change vs veh, CAPN2 / RFU, MED14 / Fold change vs veh, MED14 / RFU, SNORA58 / Fold change vs veh, SNORA58 / RFU, C1orf63 / Fold change vs veh, C1orf63 / RFU, LRRFIP1 / Fold change vs veh, LRRFIP1 / RFU, NDUFAF7 / Fold change vs veh, NDUFAF7 / RFU, SLC12A2 / Fold change vs veh, SLC12A2 / RFU, IBTK / Fold change vs veh, IBTK / RFU, ESF1 / Fold change vs veh, ESF1 / Fold change vs veh, TMEM50B / RFU, TAOK1 / Fold change vs veh, TAOK1 / RFU, ACBD3 / Fold change vs veh, ACBD3 / RFU, TMA16 / Fold change vs veh, TMA16 / RFU, RWDD3 / Fold change vs veh, RWDD3 / RFU, BCAT1 / Fold change vs veh, BCAT1 / RFU, EDEM3 / Fold change vs veh, EDEM3 / RFU, TMEM33 / Fold change vs veh, TMEM33 / RFU, WDR75 / Fold change vs veh, WDR75 / RFU, AHCTF1 / Fold change vs veh, AHCTF1 / RFU, TFRC / Fold change vs veh, TFRC / RFU, ZDHHC17 / Fold change vs veh, ZDHHC17 / RFU, NOM1 / Fold change vs veh, NOM1 / RFU, ARL8B / Fold change vs veh, ARL8B / RFU, ZBTB11 / Fold change vs veh, ZBTB11 / RFU, TAMM41 / Fold change vs veh, TAMM41 / RFU, KIAA1704 /// LOC100996395 / Fold change vs veh, KIAA1704 /// LOC100996395 / RFU, ING1 / Fold change vs veh, ING1 / RFU, TRMT61B / Fold change vs veh, TRMT61B / RFU, FUBP3 / Fold change vs veh, FUBP3 / RFU, TP53 / Fold change vs veh, TP53 / RFU, TNKS2 / Fold change vs veh, TNKS2 / RFU, ZFP14 / Fold change vs veh, ZFP14 / RFU, ACTR2 / Fold change vs veh, ACTR2 / RFU, PPP3R1 / Fold change vs veh, PPP3R1 / RFU, PIK3R1 / Fold change vs veh, PIK3R1 / RFU, HNRNPA1 / Fold change vs veh, HNRNPA1 / RFU, RNF170 / Fold change vs veh, RNF170 / RFU, ZNF28 / Fold change vs veh, ZNF28 / RFU, RNGTT / Fold change vs veh, RNGTT / RFU, OGT / Fold change vs veh, OGT / RFU, BRD1 / Fold change vs veh, BRD1 / RFU, MARS / Fold change vs veh, MARS / RFU, ZNF655 / Fold change vs veh, ZNF655 / RFU, FAHD1 / Fold change vs veh, FAHD1 / RFU, BDP1 / Fold change vs veh, BDP1 / RFU, LRRCC1 / Fold change vs veh, LRRCC1 / RFU, ARID1A / Fold change vs veh, ARID1A / RFU, ZNF146 / Fold change vs veh, ZNF146 / RFU, ZNF330 / Fold change vs veh, ZNF330 / RFU, GPN3 / Fold change vs veh, GPN3 / RFU, C9orf123 / Fold change vs veh, C9orf123 / RFU, N4BP2L2 / Fold change vs veh, N4BP2L2 / RFU, ARFIP1 / Fold change vs veh, ARFIP1 / RFU, FAM179B / Fold change vs veh, FAM179B / RFU, BCL10 / Fold change vs veh, BCL10 / RFU, UHRF1BP1L / Fold change vs veh, UHRF1BP1L / RFU, BET1 / Fold change vs veh, BET1 / RFU, CNOT2 / Fold change vs veh, CNOT2 / RFU, ZNF268 / Fold change vs veh, ZNF268 / Fold change vs veh, ZNF507 / RFU, DGCR2 / Fold change vs veh, DGCR2 / RFU, WDSUB1 / Fold change vs veh, WDSUB1 / Fold change vs veh, HSP90B1 /// MIR3652 / RFU, ADSS / Fold change vs veh, ADSS / RFU, GK / Fold change vs veh, GK / RFU, ZNF148 / Fold change vs veh, ZNF148 / RFU, TAF9 / Fold change vs veh, TAF9 / RFU, SLC1A5 / Fold change vs veh, SLC1A5 / RFU, SLMO2 / Fold change vs veh, SLMO2 / RFU, ABCC4 / Fold change vs veh, ABCC4 / RFU, LOC101060439 /// RAP1B / Fold change vs veh, LOC101060439 /// RAP1B / RFU, RFX7 / Fold change vs veh, RFX7 / RFU, GTPBP10 / Fold change vs veh, GTPBP10 / RFU, CNEP1R1 / Fold change vs veh, CNEP1R1 / RFU, BIVM-ERCC5 /// ERCC5 / Fold change vs veh, BIVM-ERCC5 /// ERCC5 / RFU, ILF3 / Fold change vs veh, ILF3 / RFU 11762660_at / Fold change /veh 11762660_at / RFU VCAN (11757783_s_at) / Fold change /veh VCAN (11757783_s_at) / RFU DDX43 (11728927_at) / Fold change /veh DDX43 (11728927_at) / RFU KRT8 (11758188_x_at) / Fold change /veh KRT8 (11758188_x_at) / RFU NKD1 (11759106_at) / Fold change /veh NKD1 (11759106_at) / RFU SRD5A1 (11742802_a_at) / Fold change /veh SRD5A1 (11742802_a_at) / RFU TPSAB1 /// TPSB2 (11721975_s_at) / Fold change /veh TPSAB1 /// TPSB2 (11721975_s_at) / RFU GSTM3 (11746129_a_at) / Fold change /veh GSTM3 (11746129_a_at) / RFU IL23R (11737362_x_at) / Fold change /veh IL23R (11737362_x_at) / RFU TMEM51 (11727254_a_at) / Fold change /veh TMEM51 (11727254_a_at) / RFU PIWIL2 (11732686_x_at) / Fold change /veh PIWIL2 (11732686_x_at) / RFU ORM1 (11744905_x_at) / Fold change /veh ORM1 (11744905_x_at) / RFU CCDC152 (11743942_at) / Fold change /veh CCDC152 (11743942_at) / RFU ECM1 (11717891_a_at) / Fold change /veh ECM1 (11717891_a_at) / RFU IL23R (11748794_a_at) / Fold change /veh IL23R (11748794_a_at) / RFU TNFAIP8L3 (11732012_x_at) / Fold change /veh TNFAIP8L3 (11732012_x_at) / RFU MBOAT4 (11741988_at) / Fold change /veh MBOAT4 (11741988_at) / RFU 11764193_at / Fold change /veh 11764193_at / RFU TMEM53 (11763286_at) / Fold change /veh TMEM53 (11763286_at) / RFU MAGEB2 (11727129_at) / Fold change /veh MAGEB2 (11727129_at) / RFU TMEM200A (11744735_a_at) / Fold change /veh TMEM200A (11744735_a_at) / RFU CCDC152 (11751479_a_at) / Fold change /veh CCDC152 (11751479_a_at) / RFU FAM211A (11726209_a_at) / Fold change /veh FAM211A (11726209_a_at) / RFU RGS16 (11746705_a_at) / Fold change /veh RGS16 (11746705_a_at) / RFU VCAN (11755009_s_at) / Fold change /veh VCAN (11755009_s_at) / RFU RHOB (11743442_s_at) / Fold change /veh RHOB (11743442_s_at) / RFU RGS16 (11720943_a_at) / Fold change /veh RGS16 (11720943_a_at) / RFU RGS16 (11720944_at) / Fold change /veh RGS16 (11720944_at) / RFU, VPS4B / Fold change vs veh, VPS4B / RFU, CREB1 / Fold change vs veh, CREB1 / RFU, DNAJC13 / Fold change vs veh, DNAJC13 / RFU, GNAQ / Fold change vs veh, GNAQ / RFU, CDK5R1 / Fold change vs veh, CDK5R1 / RFU, ZRANB3 / Fold change vs veh, ZRANB3 / RFU, CUL4A / Fold change vs veh, CUL4A / RFU, CCNY / Fold change vs veh, CCNY / RFU, UFL1 / Fold change vs veh, UFL1 / RFU, COG3 / Fold change vs veh, COG3 / RFU, DIAPH2 / Fold change vs veh, DIAPH2 / RFU, SKA2 / Fold change vs veh, SKA2 / RFU, AFF3 / Fold change vs veh, AFF3 / RFU, LMF1 / Fold change vs veh, LMF1 / RFU, IPO11 / Fold change vs veh, IPO11 / RFU, DFFB / Fold change vs veh, DFFB / RFU, FOXP1 / Fold change vs veh, FOXP1 / RFU, CARD8 / Fold change vs veh, CARD8 / RFU, STRN3 / Fold change vs veh, STRN3 / RFU, ADK / Fold change vs veh, ADK / RFU, RASSF2 / Fold change vs veh, RASSF2 / RFU, WIPF1 / Fold change vs veh, WIPF1 / RFU, LARP1B / Fold change vs veh, LARP1B / RFU, RASA1 / Fold change vs veh, RASA1 / RFU, RB1 / Fold change vs veh, RB1 / RFU, PPFIA1 / Fold change vs veh, PPFIA1 / RFU, MAT2A / Fold change vs veh, MAT2A / RFU, CCT5 / Fold change vs veh, CCT5 / RFU, WDR92 / Fold change vs veh, WDR92 / RFU, CUX1 / Fold change vs veh, CUX1 / RFU, TTC7A / Fold change vs veh, TTC7A / RFU, TMEM135 / Fold change vs veh, TMEM135 / RFU, DEPTOR / Fold change vs veh, DEPTOR / RFU, CPM / Fold change vs veh, CPM / RFU, DNAJB6 / Fold change vs veh, DNAJB6 / RFU, CACNA2D3 / Fold change vs veh, CACNA2D3 / RFU, DTX4 / Fold change vs veh, DTX4 / RFU, TFCP2 / Fold change vs veh, TFCP2 / RFU, GMCL1 /// GMCL1P1 / Fold change vs veh, GMCL1 /// GMCL1P1 / RFU, AEBP2 / Fold change vs veh, AEBP2 / RFU, SNHG1 /// SNORD22 /// SNORD25 /// SNORD26 /// SNORD27 /// SNORD28 /// SNORD29 /// SNORD31 / Fold change vs veh, SNHG1 /// SNORD22 /// SNORD25 /// SNORD26 /// SNORD27 /// SNORD28 /// SNORD29 /// SNORD31 / Fold change (Aza/veh), C12orf56 (ProbeSet 11735607_a_at) / Fold change (ACY-1035/veh), C12orf56 (ProbeSet 11735607_a_at) / Fold change (Aza/veh), FGFR1OP (ProbeSet 11751329_s_at) / Fold change (ACY-1035/veh), FGFR1OP (ProbeSet 11751329_s_at) / Fold change (Aza/veh), VPS36 (ProbeSet 11739960_a_at) / Fold change (ACY-1035/veh), VPS36 (ProbeSet 11739960_a_at) / RFU SYPL1 (11715823_x_at) / Fold change /veh SYPL1 (11715823_x_at) / RFU IGFBP7 (11715501_s_at) / Fold change /veh IGFBP7 (11715501_s_at) / RFU REEP3 (11722064_at) / Fold change /veh REEP3 (11722064_at) / RFU IGLL1 (11728026_x_at) / Fold change /veh IGLL1 (11728026_x_at): dose or concentration left out as unconfirmed
Conditions: ProbeSet 11743510_at; LIST D

For `Nc1ncn([C@@H]2O[C@H](CO)[C@@H](O)[C@H]2O)c(=O)n1` [azacitidine], the “RFU, UFL1” value was 314.03 RFU.
